From PMC12040169 (PLOS Biology, 2025)

Assay: in vitro
Settings: human, hela cells, % viability

In order of falling viability at 28.5 h, 10 µM:
1. Cc1nn(C(C)CC(=O)NC2CCCOC2)c(C)c1C (centres unmarked) [CBK283133]  112%
2. Cc1ccc(CN(Cc2nccn2C)C2CC(C)(C)NC(C)(C)C2)o1 [CBK283190]  112%
3. CC(=O)N1CCC(O)(Cn2c(C3CC3)cc3cccnc32)CC1 [CBK283082]  111%
4. COc1cccc(CN[C@@H]2CCC[C@H]2Cc2cc(C)no2)c1 [CBK283006]  109%
5. Cc1ccc2oc(CN3CCn4cnnc4C3)c(C)c2c1 [CBK283075]  109%
6. CCc1cc(CNS(=O)(=O)c2cc(C)ccc2F)on1 [CBK283064]  108%
7. Cc1ccc(CN(CCCn2ccnc2)Cc2ccncc2)o1 [CBK283101]  108%
8. Cc1ccc(CN(CCCN(C)C)Cc2cccc(O)c2)o1 [CBK283173]  108%
9. CCNCc1cc2c(C)nn(-c3ccc(F)cc3)c2[nH]c1=O [CBK283118]  107%
10. OC1(c2cccnc2F)CCN(Cc2c(F)cccc2F)CC1 [CBK283149]  107%
11. Cc1ccc(CN(CCCn2ccnc2)Cc2ccccn2)o1 [CBK283102]  106%
12. OC1(c2cccnc2F)CCN(Cc2c(F)cccc2Cl)CC1 [CBK283148]  106%
13. CN(C)CCCN(Cc1ccco1)Cc1c[nH]nc1-c1cccs1 [CBK283198]  106%
14. CC(C)N1CCC(N(C)Cc2nc3ccccc3[nH]2)CC1 [CBK283021]  105%
15. CCC1c2ccc(C)n2CCN1Cc1cnc(C)n1C (centres unmarked) [CBK283038]  105%
16. CCNC(=O)c1ccc(-n2cccn2)c(C#Cc2cccnc2)c1 [CBK283150]  105%
17. Fc1ccccc1CN(CCCn1ccnc1)CC1CCOC1 (centres unmarked) [CBK283031]  104%
18. O=C(c1ccccc1)N1CCCC(c2nnc(-c3cccs3)o2)C1 (centres unmarked) [CBK283059]  103%
19. CN1CCC[C@@H]2[C@H]1[C@@H](c1ccc(F)cc1)CN2C(=O)c1ccccn1 [CBK283081]  103%
20. Cc1ccc(CN(CCCn2ccnc2)Cc2ccccc2O)s1 [CBK283135]  103%
21. CC1(C)CC(N(Cc2ccccc2)Cc2c[nH]cn2)CC(C)(C)N1 [CBK283196]  103%
22. Cc1nn(-c2ccc(F)cc2)c2[nH]c(=O)c(CNC(C)(C)C)cc12 [CBK283120]  102%
23. CCn1cc(CN(CCN(C)C)Cc2cccs2)c(C)n1 [CBK283037]  101%
24. Cc1cc(C)n(CC(=O)Nc2ccccc2-n2ccnc2)n1 [CBK283079]  101%
25. C=CCn1ncc(CN2CCC3(O)CCCCC3C2)c1C (centres unmarked) [CBK283029]  100%
26. Cc1ccc(CN(CCCn2ccnc2)Cc2ccccc2O)o1 [CBK283189]  99.8%
27. Cc1nn(C)c(C)c1CN(C)C(=O)CCC1CCCO1 (centres unmarked) [CBK283078]  99.7%
28. Cc1c(C(=O)NC(C)c2cc3ccccc3o2)cnn1C (centres unmarked) [CBK283074]  99.3%
29. CCS(=O)(=O)N1CC2CCCC(O)(c3cccc(F)c3)C2C1 (centres unmarked) [CBK283108]  99.3%
30. O=C(NCCN1CCC(O)(c2ccc(F)cc2)CC1)c1ccco1 [CBK283166]  99.3%
31. OC1CCN(Cc2ccc(-c3ccc(F)cc3F)o2)CC1 [CBK283200]  98.9%
32. CC(C)[C@@H]1C[C@H](C(F)(F)F)n2nc(C3CCCNC3)cc2N1 (some centres unmarked) [CBK283056]  98.6%
33. CN(C)CCN(Cc1ccncc1)Cc1ccc(F)cc1F [CBK283094]  98.2%
34. Cc1nn(-c2ccc(F)cc2)c2[nH]c(=O)c(CNC3CC3)cc12 [CBK283121]  98.1%
35. Cc1ccc(CN[C@@H]2CCC(=O)N[C@H]2c2cc(F)cc(F)c2)o1 [CBK283128]  97.9%
36. Cc1ccc(CN(CCCn2ccnc2)Cc2cnn(C)c2)s1 [CBK283113]  97.3%
37. COc1ccccc1CN(CCCn1ccnc1)Cc1ccoc1 [CBK283123]  97.2%
38. O=C(NCCN1CCC(O)(c2ccc(F)cc2)CC1)C1CC1 [CBK283164]  97.1%
39. Cc1cc(S(=O)(=O)Nc2ccnn2C(C)C)ccc1F [CBK283069]  96.9%
40. CC1CC1C(=O)NCCN1CCC(O)(c2ccc(F)cc2)CC1 (centres unmarked) [CBK283168]  96.7%
41. Cc1n[nH]c(C)c1CNC(=O)C1(c2ccccc2F)CC1 [CBK283156]  96.4%
42. O=C(NCCN1CCc2ccccc21)C1CC2C=CC1O2 (centres unmarked) [CBK283158]  96.2%
43. Cc1ccc(CN(Cc2ncc[nH]2)C2CC(C)(C)NC(C)(C)C2)o1 [CBK283191]  96%
44. Cc1nn(-c2ccc(F)cc2)c2[nH]c(=O)c(CNC(C)C)cc12 [CBK283119]  95.7%
45. Cc1cc(C)n(CC(O)CN(Cc2ccco2)CC2CC=CCC2)n1 (centres unmarked) [CBK283159]  95.6%
46. O=C1CC[C@@H](NCc2cccs2)[C@H](c2cc(F)cc(F)c2)N1 [CBK283129]  95.5%
47. CCn1cc(CN(CCCN(C)C)Cc2ccc(C)o2)c(C)n1 [CBK283201]  95.5%
48. CC1(C)CC(N(Cc2ccccc2)Cc2ncc[nH]2)CC(C)(C)N1 [CBK283179]  95.2%
49. Cc1nc(C)c(C(=O)NCCN2CC(C)CC(C)C2)s1 (centres unmarked) [CBK283071]  95.1%
50. Cc1n[nH]c(C)c1CNC(=O)CCc1ccc(Cl)cc1 [CBK283185]  95%
51. CN(C)CCN(Cc1ccncc1)Cc1cc(F)cc(F)c1 [CBK283096]  94.9%
52. Cc1cc(CN(C)Cc2cnn(Cc3ccccc3)c2C)n[nH]1 [CBK283017]  94.6%
53. O[C@@]1(c2ccccn2)CC[C@H]2CN(Cc3ccccc3F)C[C@H]21 [CBK283001]  94.3%
54. CC(C)c1cc(C(=O)NC2CCOc3ccccc32)no1 (centres unmarked) [CBK283065]  93.9%
55. O=C(NCCCc1ccccn1)C1(c2ccccc2F)CC1 [CBK283155]  93.6%
56. Cn1ccnc1CN(Cc1ccccc1)C1CC(C)(C)NC(C)(C)C1 [CBK283177]  93.2%
57. O=C1CC[C@@H](NCc2ccncc2)[C@H](c2cc(F)cc(F)c2)N1 [CBK283131]  92.9%
58. Cc1nc2sccn2c1CN(CCCN(C)C)Cc1ccco1 [CBK283199]  92.5%
59. Cc1[nH]c2ccc(F)cc2c1-c1cn2c3c(nnc2n1)CCCC3 [CBK283172]  92.3%
60. CCC(=O)N1CCCC(c2nnc(-c3cccs3)o2)C1 (centres unmarked) [CBK283060]  92%
61. Cc1nc[nH]c1CN(Cc1ccccc1)C1CC(C)(C)NC(C)(C)C1 [CBK283178]  92%
62. Cn1cncc1CN1C[C@@H]2CCCN2C[C@@H]1Cc1ccccc1 [CBK283027]  91.9%
63. Cc1ccc(CN(CCCn2ccnc2)Cc2nccn2C)s1 [CBK283137]  91.8%
64. CCCc1cc(C(=O)N(C)CCOc2ccccc2)[nH]n1 [CBK283162]  91.7%
65. CCC(=O)N1c2ccc(C(O)CN3CCSCC3)cc2CC1C (centres unmarked) [CBK283122]  91.5%
66. O=C(NCCN1CCC(O)(c2ccc(F)cc2)CC1)c1cccs1 [CBK283163]  91.5%
67. Cc1cc2ccccc2n1CCC(=O)NC1CCCOC1 (centres unmarked) [CBK283152]  91.1%
68. CCN1CCCC1CN(Cc1ccncc1)Cc1ccoc1 (centres unmarked) [CBK283171]  91%
69. Cc1ccc(CN(Cc2c[nH]cn2)C2CC(C)(C)NC(C)(C)C2)o1 [CBK283175]  91%
70. CC(C)c1cc(C(=O)N2C[C@H](C)N(Cc3ccco3)C[C@@H]2C)on1 [CBK283053]  90.9%
71. COCc1ccc(C(=O)N2CCC(c3cc4cnccc4[nH]3)CC2)o1 [CBK283073]  90.9%
72. Cc1ccc(CN(CCCn2ccnc2)Cc2nc3ccccc3[nH]2)o1 [CBK283103]  90.9%
73. O=C1CC[C@@H](NCc2cccnc2)[C@H](c2cc(F)cc(F)c2)N1 [CBK283130]  90.9%
74. OCCN(Cc1cccnc1)Cc1cccn1-c1ccc(F)cc1F [CBK283042]  90.4%
75. Fc1ccccc1CN(CCCn1ccnc1)Cc1cccnc1 [CBK283099]  90.4%
76. Cc1ccc(CN(CCCn2ccnc2)Cc2[nH]cnc2C)s1 [CBK283138]  90.3%
77. Cc1n[nH]c(C)c1CNC(=O)c1cc2ccc(F)cc2[nH]1 [CBK283147]  89.4%
78. CCC(=O)N1CCCc2cc(C(O)CN3CCCC(C)C3)ccc21 (centres unmarked) [CBK283049]  89.2%
79. Cc1n[nH]c(C)c1CNC(=O)c1cccc2c(C)c(C)[nH]c12 [CBK283068]  88.9%
80. O=C(NCCCC1CCOC1)c1[nH]nc2c1CCCCC2 (centres unmarked) [CBK283154]  88.7%
81. CC1CCc2n[nH]c(C(=O)NCCCc3ccco3)c2C1 (centres unmarked) [CBK283153]  88.6%
82. CC(=O)OCc1ccc(CN2CCCCCC2c2cc(C)on2)o1 (centres unmarked) [CBK283004]  88.2%
83. CCCC(=O)N1CCC(c2nc(Cc3cccs3)no2)C1 (centres unmarked) [CBK283034]  88%
84. CN(C)CCN(Cc1ccncc1)Cc1cc(F)ccc1F [CBK283095]  88%
85. O=C(Nc1cccc(N2CCCC2)c1)c1cc(C2CC2)on1 [CBK283139]  87.7%
86. CC(=O)NCC1CCC(C(NC(=O)C2CC2)c2ccccn2)CC1 (centres unmarked) [CBK283000]  87.5%
87. Cn1ccc(C2CCCCCN2C(=O)Cc2cccs2)n1 (centres unmarked) [CBK283047]  86.5%
88. Cc1ccsc1CN(Cc1cncn1C)CC(C)O (centres unmarked) [CBK283033]  85.7%
89. CC(C)c1cc(C(=O)N2CCCCCC2c2ccn(C)n2)no1 (centres unmarked) [CBK283048]  85.3%
90. CN(C)CCN(Cc1nc2ccccc2[nH]1)Cc1cccs1 [CBK283020]  85.1%
91. Cn1cncc1CN(CCCn1ccnc1)Cc1ccccc1Cl [CBK283041]  84.8%
92. Cc1cc2cc(NC(=O)CCc3c(C)n[nH]c3C)ccc2o1 [CBK283077]  84.2%
93. O=C(NCCO)C1(Cc2ccc(-c3ccccc3)cc2)CCNC1 (centres unmarked) [CBK283043]  83.9%
94. OCCN(Cc1cccnc1)Cc1cccn1-c1cccc(F)c1 [CBK283018]  81.5%
95. Cc1nn(C)c(C)c1C(C)NC(=O)C1CC2C=CC1C21CC1 (centres unmarked) [CBK283076]  81.5%
